Source: patent US7879846B2, “Serine hydrolase inhibitors” (Kyorin Pharmaceutical Co.., Ltd., priority 2006, dated 2011)

Biological target: T1, Human sputum neutrophil elastase (Homo sapiens, UniProt P08246)
T1 construct: purchased Elastin Products Co; host or cells: human sputum (natural source)
T1 sequence (P08246 30-247 limits assumed): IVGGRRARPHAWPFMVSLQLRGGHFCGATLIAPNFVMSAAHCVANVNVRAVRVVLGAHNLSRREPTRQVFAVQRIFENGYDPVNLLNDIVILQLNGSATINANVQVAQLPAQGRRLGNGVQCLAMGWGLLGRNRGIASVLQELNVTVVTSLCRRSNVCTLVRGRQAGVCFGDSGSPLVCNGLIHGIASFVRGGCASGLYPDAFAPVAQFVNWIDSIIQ
Experiment: Inhibitor IC50 against human neutrophil elastase (fluorogenic MeOSuc-AAPV-AMC substrate)
Format: biochemical
Conditions: 20 min preincubation, read-out: HNE IC50
Method: Determination of Inhibitor IC50 Values Against Human Neutrophil Elastase
Human sputum neutrophil elastase (Elastin Products Co.) was diluted into Assay Buffer A (200 mM Tris pH 7.4, 1 mg/ml BSA) to a working concentration of 0.55 U/ml. […] DMSO alone was used as the negative control. MeOSuc-AAPV-AMC (Bachem) substrate was dissolved in DMSO to 20 mM and further diluted to 1 mM in Assay Buffer A immediately before use. Substrate was added to the elastase assay at a final concentration of 1×10^−4 M. The reaction was allowed to proceed for 20 minutes at room temperature and then quenched with acetic acid at a final concentration of 3% (v/v). […] Fluorescence intensity versus inhibitor concentration was plotted and fit to the Hill equation to quantify IC50 values.

`CCc1cc(OC)cc2nc(-c3cccnc3N3CCN(CCC(=O)O)CC3)oc(=O)c12` [Compound 213] and `CCOC(=O)CN1CCN(c2ncccc2-c2nc3cc(OC)cc(CC)c3c(=O)o2)CC1` [Compound 196] cannot be ordered by IC50: less than 15 nM for the first, less than 15 nM for the second.

`CCc1cccc2nc(-c3cccnc3-n3ccnc3)oc(=O)c12` [Compound 67] and `CCc1cccc2nc(-c3ncccc3-n3ccnc3)oc(=O)c12` [Compound 97] cannot be ordered by IC50: less than 15 nM for the first, less than 15 nM for the second.

`COc1cccc2nc(-c3cccnc3N3CCC[C@H]3C(=O)OC(C)(C)C)oc(=O)c12` [Compound 42] and `COC(=O)[C@H]1CCCN1c1ncccc1-c1nc2cccc(OC)c2c(=O)o1` [Compound 43] cannot be ordered by IC50: greater than 150 nM for the first, greater than 150 nM for the second.

Compared with `CCSc1ncccc1-c1nc2cccc(C)c2c(=O)o1` [Compound 40], `Cc1cccc2nc(-c3cccnc3F)oc(=O)c12` [Compound 34] is lower in IC50: greater than 150 nM for the first, 61 to 150 nM for the second.

`CCc1cc(OC)cc2nc(-c3cccnc3N3CCN(CC(=O)N4CCOCC4)CC3)oc(=O)c12` [Compound 197] and `CCc1cc(OC)cc2nc(-c3cccnc3N3CCN(CC4OCCO4)CC3)oc(=O)c12` [Compound 191] cannot be ordered by IC50: less than 15 nM for the first, less than 15 nM for the second.

Compared with `CCc1cccc2nc(-c3cccnc3-n3cc[n+](C)c3)oc(=O)c12` [Compound 84], `Cc1cccc2nc(-c3cccnc3-n3cc[n+](C)c3)oc(=O)c12` [Compound 65] is higher in IC50: 16 to 60 nM for the first, greater than 150 nM for the second. The first is the more potent here.

`Cc1cccc2nc(-c3cccnc3N3CC[C@@H](N(C)C)C3)oc(=O)c12` [Compound 178] and `Cc1cccc2nc(-c3cccnc3N3CCN(CCN(C)C)CC3)oc(=O)c12` [Compound 180] fall in the same range of IC50: 16 to 60 nM for the first, 16 to 60 nM for the second.

`CCCc1cc(OC)cc2nc(-c3cccnc3N3CCN(CC4CC4)CC3)oc(=O)c12` [Compound 157] and `COc1cc(C(C)C)c2c(=O)oc(-c3cccnc3N3CCN(CC4CC4)CC3)nc2c1` [Compound 112] fall in the same range of IC50: 61 to 150 nM for the first, 61 to 150 nM for the second.

First: C=CCN1CCN(c2ncccc2-c2nc3cc(OC)cc(CC)c3c(=O)o2)CC1 [Compound 193]
Second: C#CCN1CCN(c2ncccc2-c2nc3cc(OC)cc(CC)c3c(=O)o2)CC1 [Compound 233]
The IC50 of the first is lower: less than 15 nM for the first, 16 to 60 nM for the second. The first is the more potent here.

`Cc1cccc2nc(-c3ccncc3)oc(=O)c12` [Compound 9] and `Cc1cccc2nc(-c3cccc[n+]3[O-])oc(=O)c12` [Compound 73] cannot be ordered by IC50: greater than 150 nM for the first, greater than 150 nM for the second.

`CCc1cccc2nc(-c3cccnc3N3CCN(CCC#N)CC3)oc(=O)c12` [Compound 93] and `C#CCN1CCN(c2ncccc2-c2nc3cccc(CC)c3c(=O)o2)CC1` [Compound 234] cannot be ordered by IC50: less than 15 nM for the first, less than 15 nM for the second.

`CCc1cc(OC)cc2nc(-c3cccnc3-n3ccnc3)oc(=O)c12` [Compound 106] and `CCc1cc(OC)cc2nc(-c3cccnc3N3CCC(O)CC3)oc(=O)c12` [Compound 214] cannot be ordered by IC50: less than 15 nM for the first, less than 15 nM for the second.

Compared with `CCc1cc(OC)cc2nc(-c3cccnc3N3CCC(CN4CCOCC4)CC3)oc(=O)c12` [Compound 245], `CCc1cc(OC)cc2nc(-c3cccnc3N3CCCC(CN4CCOCC4)C3)oc(=O)c12` (stereo not shown) [Compound 243] is higher in IC50: less than 15 nM for the first, 16 to 60 nM for the second. The first is the more potent here.

`O=c1oc(-c2ncccc2-n2ccnc2)nc2cccc(Cl)c12` [Compound 70] and `O=c1oc(-c2cccnc2-n2ccnc2)nc2cccc(Cl)c12` [Compound 71] cannot be ordered by IC50: greater than 150 nM for the first, greater than 150 nM for the second.

`CCc1cc(OC)cc2nc(-c3cccnc3N3CC[N+](C)(C)CC3)oc(=O)c12` [Compound 229] and `CCc1cc(OC)cc2nc(-c3cccnc3N3CC[N+](C)(CCOC)CC3)oc(=O)c12` [Compound 230] cannot be ordered by IC50: less than 15 nM for the first, less than 15 nM for the second.

`CCc1cc(OC)cc2nc(-c3cccnc3N3C[C@H](CNC4CC4)[C@@H](C)C3)oc(=O)c12` [Compound 260] and `CCc1cc(OC)cc2nc(-c3cccnc3N3CCC(N(C)C)CC3)oc(=O)c12` [Compound 220] fall in the same range of IC50: 16 to 60 nM for the first, 16 to 60 nM for the second.

`CCc1cc(OC)cc2nc(-c3cccnc3N3CC[C@H](N4CCS(=O)(=O)CC4)C3)oc(=O)c12` [Compound 264] and `CCc1cc(OC)cc2nc(-c3cccnc3N3CC[C@@H](N4CCOCC4)C3)oc(=O)c12` [Compound 267] cannot be ordered by IC50: less than 15 nM for the first, less than 15 nM for the second.

`CCc1cc(OC)cc2nc(-c3cccnc3N3CCC[C@H]3CN3CCCC3)oc(=O)c12` [Compound 271] and `CCc1cc(OC)cc2nc(-c3cccnc3N3CCC(CCN4CCCC4)CC3)oc(=O)c12` [Compound 257] cannot be ordered by IC50: less than 15 nM for the first, less than 15 nM for the second.

First: CSc1ncccc1-c1nc2cccc(Cl)c2c(=O)o1 [Compound 27]
Second: O=c1oc(-c2cccnc2Oc2ccc(Cl)cc2)nc2cccc(Cl)c12 [Compound 25]
The IC50 of the first is higher: 61 to 150 nM for the first, 16 to 60 nM for the second. The second is the more potent here.

First: CCc1cc(OC)cc2nc(-c3cccnc3N3CCC(CN(C)C)CC3)oc(=O)c12 [Compound 246]
Second: CCc1cc(OC)cc2nc(-c3cccnc3N(C)CC3CCN(C)CC3)oc(=O)c12 [Compound 242]
The IC50 of the first is higher: 16 to 60 nM for the first, less than 15 nM for the second. The second is the more potent here.

`CCc1cc(OC)cc2nc(-c3cccnc3N3CCN(CC4CCCO4)CC3)oc(=O)c12` (stereo not shown) [Compound 218] and `CCOCCN1CCN(c2ncccc2-c2nc3cc(OC)cc(CC)c3c(=O)o2)CC1` [Compound 203] cannot be ordered by IC50: less than 15 nM for the first, less than 15 nM for the second.

`COc1cc(C(C)C)c2c(=O)oc(-c3cccnc3N3CC[C@@H](N(C)C)C3)nc2c1` [Compound 110] and `COc1cc(C(C)C)c2c(=O)oc(-c3cccnc3N3CC[C@H](N(C)C)C3)nc2c1` [Compound 111] fall in the same range of IC50: 61 to 150 nM for the first, 61 to 150 nM for the second.

`CCc1cccc2nc(-c3cccnc3N3CCN(Cc4ccc(F)cc4)CC3)oc(=O)c12` [Compound 99] and `CCc1cccc2nc(-c3cccnc3N3CC[N+](C)(Cc4ccc(OC)cc4)CC3)oc(=O)c12` [Compound 102] cannot be ordered by IC50: less than 15 nM for the first, less than 15 nM for the second.

`COc1cc(C(C)C)c2c(=O)oc(-c3cccnc3N3CCN(CCN4CCOCC4)CC3)nc2c1` [Compound 114] and `COc1cc(C2CC2)c2c(=O)oc(-c3cccnc3N3CCN(CCN4CCOCC4)CC3)nc2c1` [Compound 168] fall in the same range of IC50: 61 to 150 nM for the first, 61 to 150 nM for the second.

First: CCc1cc(OC)cc2nc(-c3cccnc3N3CCCC(N(C)C)C3)oc(=O)c12 (stereo not shown) [Compound 212]
Second: CCc1cc(OC)cc2nc(-c3cccnc3N3CCC(N(CC)CC)C3)oc(=O)c12 (stereo not shown) [Compound 189]
The IC50 of the first is higher: 16 to 60 nM for the first, less than 15 nM for the second.

First: CCc1cc(OC)cc2nc(-c3cccnc3N3CCN(CCOCCO)CC3)oc(=O)c12 [Compound 210]
Second: CCc1cc(OC)cc2nc(-c3cccnc3N3CCC(c4c[nH]cn4)CC3)oc(=O)c12 [Compound 275]
The IC50 of the first is higher: 16 to 60 nM for the first, less than 15 nM for the second.

Compared with `CCc1cc(OC)cc2nc(-c3ccc(N4CCN(C)CC4)nc3)oc(=O)c12` [Compound 207], `CCc1cc(OC)cc2nc(-c3ccnc(N4CCN(C)CC4)c3)oc(=O)c12` [Compound 205] is higher in IC50: 16 to 60 nM for the first, greater than 150 nM for the second.

Compared with `CCc1cc(OC)cc2nc(-c3cccnc3N(C)C3CCN(C)C3)oc(=O)c12` (stereo not shown) [Compound 138], `CCc1cc(OC)cc2nc(-c3cccnc3N3CC[C@H]([N+](C)(C)C)C3)oc(=O)c12` [Compound 232, {1-[3-(5-Ethyl-7-methoxy-4-oxo-4H-benz[d][1,3]oxazin-2-yl)-pyridin-2-yl]-pyrrolidin-3-yl}-trimethyl-ammonium acetate] is lower in IC50: 16 to 60 nM for the first, less than 15 nM for the second. The second is the more potent here.

`C=CCN1C[C@@H](C)N(c2ncccc2-c2nc3cc(OC)cc(CC)c3c(=O)o2)C[C@H]1C` [Compound 217] and `CCc1cc(OC)cc2nc(-c3cccnc3N3CC4(C)CN(C)CC(C)(C3)C4O)oc(=O)c12` (stereo not shown) [Compound 255] cannot be ordered by IC50: less than 15 nM for the first, less than 15 nM for the second.

`O=c1oc(-c2ccccn2)nc2ccccc12` [Compound 17] and `COc1cccc2nc(-c3ncccc3-n3ccnc3)oc(=O)c12` [Compound 69] cannot be ordered by IC50: greater than 150 nM for the first, greater than 150 nM for the second.

`Cc1ccc(Sc2ncccc2-c2nc3cccc(C)c3c(=O)o2)cc1` [Compound 24] and `Cc1cccc2nc(-c3cccnc3OCCN(C)C)oc(=O)c12` [Compound 61] cannot be ordered by IC50: greater than 150 nM for the first, greater than 150 nM for the second.

Compared with `CCc1cc(OC)cc2nc(-c3cccc(N4CCN(C)CC4)n3)oc(=O)c12` [Compound 206], `COc1cc(C2CC2)c2c(=O)oc(-c3cccnc3N3CCN(CC4CC4)CC3)nc2c1` [Compound 166] is higher in IC50: 16 to 60 nM for the first, 61 to 150 nM for the second. The first is the more potent here.

First: CCc1cccc2nc(-c3cccnc3N(C)CCN(C)C)oc(=O)c12 [Compound 154]
Second: CCCc1cc(OC)cc2nc(-c3cccnc3N(C)CCN(C)C)oc(=O)c12 [Compound 151]
The IC50 of the first is lower: less than 15 nM for the first, 16 to 60 nM for the second.

`COc1cc(C2CCC2)c2c(=O)oc(-c3cccnc3N3CCC[C@H](C(=O)O)C3)nc2c1` [Compound 174] and `COc1cccc2nc(-c3cccnc3N3CCN(C)C(C)C3)oc(=O)c12` (stereo not shown) [Compound 45] cannot be ordered by IC50: greater than 150 nM for the first, greater than 150 nM for the second.

Compared with `COc1ccc(-c2nc3cccc(C)c3c(=O)o2)c(OC)n1` [Compound 22], `COCCN(CCOC)c1ncccc1-c1nc2cccc(C)c2c(=O)o1` [Compound 55] is higher in IC50: less than 15 nM for the first, greater than 150 nM for the second. The first is the more potent here.

`Cc1cccc2nc(-c3cccnc3OCCOCCOCCOCc3ccccc3)oc(=O)c12` [Compound 56] and `COc1cccc2nc(-c3cccnc3N(C)CC(=O)OCc3ccccc3)oc(=O)c12` [Compound 41] cannot be ordered by IC50: greater than 150 nM for the first, greater than 150 nM for the second.

Compared with `C#CCN1CCN(c2ncccc2-c2nc3cccc(C(F)(F)F)c3c(=O)o2)CC1` [Compound 235], `CN1CCN(c2ncccc2-c2nc3cccc(C(F)(F)F)c3c(=O)o2)CC1` [Compound 63] is higher in IC50: less than 15 nM for the first, 16 to 60 nM for the second. The first is the more potent here.

First: COC(=O)[C@H]1CCCN1c1ncccc1-c1nc2cccc(C)c2c(=O)o1 [Compound 33]
Second: COCCOCCOCCOCCOCCOCCOCCOc1ncccc1-c1nc2cc(OC)cc(C(C)C)c2c(=O)o1 [Compound 108]
The IC50 of the first is lower: 16 to 60 nM for the first, greater than 150 nM for the second. The first is the more potent here.
